Measured values published in PubChem BioAssay (NCI).
Where “and” joins values, the source holds several entries; their conditions need not be identical. Equal values may be shown once.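 Five compound concentrations were applied to cells in 96-well plates for 48 hours; endpoints were derived by simple linear interpolation of the resulting dose-response curve. GI50 = concentration required for 50% inhibition of growth. The concentration for full growth arrest is given as TGI.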 Numbered stars: 1 amine (or outer) side, 2 acyl side, 3 side chain; on linkers, the order of the positions; unused ones are H or OH. Bridge positions count the residues as written; N and C are the ends. Square brackets hold non-standard residues; d marks the D form. Peptide text beside a SMILES is read from it. I, II: the chains in the order shown. Actinocin(9to1) = Cc1c2oc3c(C)ccc(C(=O)[*:1])c3nc-2c(C(=O)[*:2])c(N)c1=O; aThr = C[C@H](O)[C@H](N)C(=O)O; NMeV = CN[C@H](C(=O)O)C(C)C; Sar = CNCC(=O)O

What was measured:
Assay in all cases: NCI tumour cell line growth inhibition, 48 h
HOP-92 NSCLC = tested on: HOP-92 NSCLC
SK-MEL-28 melanoma = tested on: SK-MEL-28 melanoma
MALME-3M melanoma = tested on: MALME-3M melanoma
SF-539 CNS = tested on: SF-539 CNS
CCRF-CEM leukemia = tested on: CCRF-CEM leukemia
NCI-H460 lung = tested on: NCI-H460 lung
DMS 114 small cell lung = tested on: DMS 114 small cell lung
SF-295 CNS = tested on: SF-295 CNS
TK-10 renal = tested on: TK-10 renal
LXFL 529 NSCLC = tested on: LXFL 529 NSCLC
XF 498 CNS = tested on: XF 498 CNS
EKVX NSCLC = tested on: EKVX NSCLC
RPMI-8226 leukemia = tested on: RPMI-8226 leukemia
SNB-75 CNS = tested on: SNB-75 CNS
MOLT-4 leukemia = tested on: MOLT-4 leukemia
UO-31 renal = tested on: UO-31 renal
NCI-H23 lung = tested on: NCI-H23 lung
A549 NSCLC = tested on: A549 NSCLC
HCT-116 colon = tested on: HCT-116 colon
UACC-62 melanoma = tested on: UACC-62 melanoma
HCT-15 colon = tested on: HCT-15 colon
IGROV1 ovarian = tested on: IGROV1 ovarian
COLO 205 colon = tested on: COLO 205 colon
RXF-631 renal = tested on: RXF-631 renal
KM12 colon = tested on: KM12 colon
NCI-H522 lung = tested on: NCI-H522 lung
DMS 273 small cell lung = tested on: DMS 273 small cell lung
SK-MEL-2 melanoma = tested on: SK-MEL-2 melanoma
OVCAR-5 ovarian = tested on: OVCAR-5 ovarian
M14 melanoma = tested on: M14 melanoma
786-0 renal = tested on: 786-0 renal
U251 CNS = tested on: U251 CNS
RXF 393 renal = tested on: RXF 393 renal
SN12C renal = tested on: SN12C renal
HCC-2998 colon = tested on: HCC-2998 colon
SK-MEL-5 melanoma = tested on: SK-MEL-5 melanoma
UACC-257 melanoma = tested on: UACC-257 melanoma
OVCAR-4 ovarian = tested on: OVCAR-4 ovarian
HL-60(TB) leukemia = tested on: HL-60(TB) leukemia
K-562 leukemia = tested on: K-562 leukemia
OVCAR-8 ovarian = tested on: OVCAR-8 ovarian
DLD-1 colon = tested on: DLD-1 colon
SNB-19 CNS = tested on: SNB-19 CNS
M19-MEL melanoma = tested on: M19-MEL melanoma
SW-620 colon = tested on: SW-620 colon
HOP-62 NSCLC = tested on: HOP-62 NSCLC
SF-268 CNS = tested on: SF-268 CNS
OVCAR-3 ovarian = tested on: OVCAR-3 ovarian
KM20L2 colon = tested on: KM20L2 colon
ACHN renal = tested on: ACHN renal
HT29 colon = tested on: HT29 colon
SN12K1 renal = tested on: SN12K1 renal
T-47D breast = tested on: T-47D breast
P388/ADR leukemia = tested on: P388/ADR leukemia
HS 578T breast = tested on: HS 578T breast
P388 leukemia = tested on: P388 leukemia
SNB-78 CNS = tested on: SNB-78 CNS
MCF7 breast = tested on: MCF7 breast
HOP-18 NSCLC = tested on: HOP-18 NSCLC
NCI/ADR-RES ovarian = tested on: NCI/ADR-RES ovarian
SK-OV-3 ovarian = tested on: SK-OV-3 ovarian
A498 renal = tested on: A498 renal
CAKI-1 renal = tested on: CAKI-1 renal
NCI-H226 lung = tested on: NCI-H226 lung
LOX IMVI melanoma = tested on: LOX IMVI melanoma

## N#Cc1cccc(C2C(=O)c3ccc(C(=O)c4ccc5c(c4)C(=O)N(c4ccc(Oc6ccc(N7C(=O)c8ccc(C(=O)c9ccc%10c(c9)C(=O)N(c9cccc(C#N)c9)C%10=O)cc8C7=O)cc6)cc4)C5=O)cc3C2=O)c1 (stereo not drawn)
HOP-92 NSCLC
  TGI: > 100 µM
SK-MEL-28 melanoma
  TGI: > 100 µM
MALME-3M melanoma
  TGI: > 100 µM
SF-539 CNS
  TGI: > 100 µM
CCRF-CEM leukemia
  TGI: > 100 µM
NCI-H460 lung
  TGI: > 100 µM
DMS 114 small cell lung
  TGI: > 100 µM
SF-295 CNS
  TGI: > 100 µM
TK-10 renal
  TGI: > 100 µM
LXFL 529 NSCLC
  TGI: > 100 µM
XF 498 CNS
  TGI: > 100 µM
EKVX NSCLC
  TGI: > 100 µM
RPMI-8226 leukemia
  TGI: > 100 µM
SNB-75 CNS
  TGI: > 100 µM
MOLT-4 leukemia
  TGI: > 100 µM
UO-31 renal
  TGI: > 100 µM
NCI-H23 lung
  TGI: > 100 µM
A549 NSCLC
  TGI: > 100 µM
HCT-116 colon
  TGI: > 100 µM
UACC-62 melanoma
  TGI: > 100 µM
HCT-15 colon
  TGI: > 100 µM
IGROV1 ovarian
  TGI: > 100 µM
COLO 205 colon
  TGI: > 100 µM
RXF-631 renal
  TGI: > 100 µM
KM12 colon
  TGI: > 100 µM
NCI-H522 lung
  TGI: > 100 µM
DMS 273 small cell lung
  TGI: > 100 µM
SK-MEL-2 melanoma
  TGI: > 100 µM
OVCAR-5 ovarian
  TGI: > 100 µM
M14 melanoma
  TGI: > 100 µM
786-0 renal
  TGI: > 100 µM
U251 CNS
  TGI: > 100 µM
RXF 393 renal
  TGI: > 100 µM
SN12C renal
  TGI: > 100 µM
HCC-2998 colon
  TGI: > 100 µM
SK-MEL-5 melanoma
  TGI: > 100 µM
UACC-257 melanoma
  TGI: > 100 µM
OVCAR-4 ovarian
  TGI: > 100 µM
HL-60(TB) leukemia
  TGI: > 100 µM
K-562 leukemia
  TGI: > 100 µM
OVCAR-8 ovarian
  TGI: > 100 µM
DLD-1 colon
  TGI: > 100 µM
SNB-19 CNS
  TGI: > 100 µM
M19-MEL melanoma
  TGI: > 100 µM
SW-620 colon
  TGI: > 100 µM
HOP-62 NSCLC
  TGI: > 100 µM
SF-268 CNS
  TGI: > 100 µM
OVCAR-3 ovarian
  TGI: > 100 µM
KM20L2 colon
  TGI: > 100 µM
ACHN renal
  TGI: > 100 µM
HT29 colon
  TGI: > 100 µM

## Cc1c2oc3c(C)ccc(C(=O)N[C@@H]4C(=O)N[C@H](C(C)C)C(=O)N5CCC[C@H]5C(=O)N(C)CC(=O)N(C)[C@@H](C(C)C)C(=O)O[C@H]4C)c3nc-2c(C(=O)N[C@@H]2C(=O)N[C@H](C(C)C)C(=O)N3CCC[C@H]3C(=O)N(C)CC(=O)N(C)[C@@H](C(C)C)C(=O)O[C@H]2C)c(N)c1=O (I: [aThr][dV]P[Sar][NMeV] / II: [aThr][dV]P[Sar][NMeV]; ester I:1-I:C, II:1-II:C; linker I:N-II:N via Actinocin(9to1))
DMS 114 small cell lung
  GI50: 0.00101 µM
  TGI: 0.0187 µM and 0.0122 µM
SN12K1 renal
  TGI: 0.148 µM
LXFL 529 NSCLC
  GI50: 0.00139 µM and 0.000348 µM
  TGI: 0.07 µM and 0.32 µM
XF 498 CNS
  GI50: 0.000444 µM
  TGI: 0.0128 µM and 0.00303 µM
SNB-75 CNS
  TGI: 24.6 nM [middle of 6 runs]
DMS 273 small cell lung
  GI50: 0.000783 µM
  TGI: 0.026 µM and 0.0178 µM
T-47D breast
  TGI: 34.3 nM [middle of 4 runs]
P388/ADR leukemia
  TGI: 0.171 µM
HS 578T breast
  TGI: 47.7 nM [middle of 4 runs]
P388 leukemia
  TGI: 0.0154 µM
DLD-1 colon
  GI50: 0.0019 µM
  TGI: 0.208 µM and 1.2 µM
M19-MEL melanoma
  GI50: 0.000496 µM
  TGI: 0.0194 µM and 0.0127 µM
SNB-78 CNS
  GI50: 0.00447 µM
  TGI: 0.117 µM and 0.315 µM
MCF7 breast
  TGI: 0.0693 µM and 0.25 µM and 0.197 µM
HOP-18 NSCLC
  GI50: 0.00903 µM
  TGI: 0.123 µM and 0.125 µM
KM20L2 colon
  GI50: 0.000964 µM
  TGI: 0.106 µM and 0.0859 µM

## CC1OC(CO)(n2cnc3c(N)ncnc32)C(O)C1O (stereo not drawn)
HOP-92 NSCLC
  TGI: > 100 µM
SK-MEL-28 melanoma
  TGI: > 100 µM
MALME-3M melanoma
  TGI: > 100 µM
SF-539 CNS
  TGI: > 100 µM
CCRF-CEM leukemia
  TGI: > 100 µM
NCI-H460 lung
  TGI: > 100 µM
DMS 114 small cell lung
  TGI: > 100 µM
SN12K1 renal
  TGI: > 100 µM
SF-295 CNS
  TGI: > 100 µM
XF 498 CNS
  TGI: > 100 µM
EKVX NSCLC
  TGI: > 100 µM
RPMI-8226 leukemia
  TGI: > 100 µM
SNB-75 CNS
  TGI: > 100 µM
NCI/ADR-RES ovarian
  TGI: > 100 µM
MOLT-4 leukemia
  TGI: > 100 µM
UO-31 renal
  TGI: > 100 µM
NCI-H23 lung
  TGI: > 100 µM
A549 NSCLC
  TGI: > 100 µM
HCT-116 colon
  TGI: > 100 µM
UACC-62 melanoma
  TGI: > 100 µM
HCT-15 colon
  TGI: > 100 µM
IGROV1 ovarian
  TGI: > 100 µM
COLO 205 colon
  TGI: > 100 µM
KM12 colon
  TGI: > 100 µM
NCI-H522 lung
  TGI: > 100 µM
DMS 273 small cell lung
  TGI: > 100 µM
SK-MEL-2 melanoma
  TGI: > 100 µM
OVCAR-5 ovarian
  TGI: > 100 µM
U251 CNS
  TGI: > 100 µM
P388/ADR leukemia
  TGI: > 100 µM
RXF 393 renal
  TGI: > 100 µM
SN12C renal
  TGI: > 100 µM
SK-OV-3 ovarian
  TGI: > 100 µM
HCC-2998 colon
  TGI: > 100 µM
SK-MEL-5 melanoma
  TGI: > 100 µM
UACC-257 melanoma
  TGI: > 100 µM
A498 renal
  TGI: > 100 µM
OVCAR-4 ovarian
  TGI: > 100 µM
HL-60(TB) leukemia
  TGI: > 100 µM
K-562 leukemia
  TGI: > 100 µM
P388 leukemia
  TGI: > 100 µM
OVCAR-8 ovarian
  TGI: > 100 µM
DLD-1 colon
  TGI: > 100 µM
SNB-19 CNS
  TGI: > 100 µM
M19-MEL melanoma
  TGI: > 100 µM
SW-620 colon
  TGI: > 100 µM
SNB-78 CNS
  TGI: > 100 µM
HOP-62 NSCLC
  TGI: > 100 µM
MCF7 breast
  TGI: > 100 µM
CAKI-1 renal
  TGI: > 100 µM
NCI-H226 lung
  TGI: > 100 µM
SF-268 CNS
  TGI: > 100 µM
HOP-18 NSCLC
  TGI: > 100 µM
OVCAR-3 ovarian
  TGI: > 100 µM
LOX IMVI melanoma
  TGI: > 100 µM
KM20L2 colon
  TGI: > 100 µM
HT29 colon
  TGI: > 100 µM
